US10821115B2, “Compounds that inhibit Mcl-1 protein” (priority 2017, dated 2020)
pIC50: −log10 of the molar value. Where two headings read alike, the source gives them in different places.

What was measured:
[1] = system: human multiple myeloma cell line, OPM-2; assay: Cell viability assay (OPM-2 10 FBS), CellTiter-Glo; type: cell-based
Summary of the method: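 IC50 values come from 4-parameter logistic fits of luminescence signals reflecting cell viability. Treatment lasted 16 h at 37 °C in complete medium with 10% FBS, starting from 3000 cells/well.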

[2] = target: recombinant human Mcl-1 (residues 171-327) / Bim interaction (Homo sapiens (Human), UniProt Q07820); assay: biochemical; type: binding; conditions: read-out: Mcl-1 HTRF IC50
[3] = read-out: OPM-2 10% FBS IC50 IP, OPM-2 cells, 10% FBS, 16 h, CellTiter-Glo
[4] = TR-FRET, Mcl-1(171-327) / biotin-Bim (51-76)
[5] = Homo sapiens, OPM-2, 16 h, read-out: OPM-2 10% FBS IC50 IP, OPM-2 cells, 10% FBS, 16 h, CellTiter-Glo
[6] = Homo sapiens, OPM-2, 16 h, read-out: OPM-2 10% FBS IC50 IP, OPM-2 cells, 10% FBS, 16 h incubation
[7] = 0.1 nM Mcl-1(171-327), 0.05 nM biotin-Bim (51-76)

Chain of recombinant human Mcl-1 (residues 171-327) / Bim interaction (Q07820 171-327): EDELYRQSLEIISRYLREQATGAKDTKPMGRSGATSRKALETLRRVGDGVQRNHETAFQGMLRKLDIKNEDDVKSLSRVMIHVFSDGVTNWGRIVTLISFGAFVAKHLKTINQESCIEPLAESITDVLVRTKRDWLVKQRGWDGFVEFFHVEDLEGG

SMILES	pIC50 [2, 4]	pIC50 [1, 5]	pIC50 [2, 7]	other results
C[C@@H]1[C@@H](C)CCC[C@@](O)(CS(=O)(=O)N(C)C(C)(C)C)[C@@H]2CC[C@H]2CN2C[C@@]3(CCCc4cc(Cl)ccc43)COc3ccc(cc32)C(=O)NS1(=O)=O [Example 100170, 1-((1S,3′R,6′R,7′S,11′S,12′R)-6-chloro-7′-hydroxy-11′,12′-dimethyl-13′,13′-dioxido-15′-oxo-3,4-dihydro-2H-spiro[naphthalene-1,22′-[20]oxa[13]thia[1,14]diazatetracyclo [14.7.2.0~3,6~.0~19,24~]pentacosa[16,18,24]trien]-7′-yl)-N-methyl-N-(2-methyl-2-propanyl)methanesulfonamide]	7.92			pIC50 [1, 3]: 5.11
CO[C@]1(CC=O)/C=C/C[C@H](C)[C@@H](C)S(=O)(=O)NC(=O)c2ccc3c(c2)N(C[C@@H]2CC[C@H]21)C[C@@]1(CCCc2cc(Cl)ccc21)CO3 [Example 100322, ((1S,3′R,6′R,7′R,8′E,11′S,12′R)-6-chloro-7′-methoxy-11′,12′-dimethyl-13′,13′-dioxido-15′-oxo-3,4-dihydro-2H-spiro[naphthalene-1,22′-[20]oxa[13]thia[1,14]diazatetracyclo [14.7.2.0~3,6~.0~19,24~]pentacosa[8,16,18,24]tetraen]-7′-yl)acetaldehyde]	8.65	5.81		
CO[C@]1(CN2CCN3C(=O)OC[C@@H]3C2)/C=C/C[C@H](C)[C@@H](C)S(=O)(=O)NC(=O)c2ccc3c(c2)N(C[C@@H]2CC[C@H]21)C[C@@]1(CCCc2cc(Cl)ccc21)CO3 [Example 64, (1S,3′R,6′R,7′R,8′E,11′S,12′R)-6-chloro-7′-methoxy-11′,12′-dimethyl-7′-(((8aS)-3-oxotetrahydro[1,3]oxazolo[3,4-a]pyrazin-7(1H)-yl)methyl)-3,4-dihydro-2H,15′H-spiro[naphthalene-1,22′-[20]oxa[13]thia[1,14]diazatetracyclo [14.7.2.0~3,6~.0~19,24~]pentacosa[8,16,18,24]tetraen]-15′-one 13′,13′-dioxide]			9.90	pIC50 [1, 6]: 6.70
C[C@@H]1[C@@H](C)CCC[C@@](O)(c2nccn2C)[C@@H]2CC[C@H]2CN2C[C@@]3(CCCc4cc(Cl)ccc43)COc3ccc(cc32)C(=O)NS1(=O)=O [Example 100226, (1S,3′R,6′R,7′S,11′S,12′R)-6-chloro-7′-hydroxy-11′,12′-dimethyl-7′-(1-methyl-1H-imidazol-2-yl)-3,4-dihydro-2H,15′H-spiro[naphthalene-1,22′-[20]oxa[13]thia[1,14]diazatetracyclo [14.7.2.0~3,6~.0~19,24~]pentacosa[16,18,24]trien]-15′-one 13′,13′-dioxide]	8.86	6.07		
CO[C@@]1(Cc2ncco2)/C=C/C[C@H](C)[C@@H](C)S(=O)(=O)NC(=O)c2ccc3c(c2)N(C[C@@H]2CC[C@H]21)C[C@@]1(CCCc2cc(Cl)ccc21)CO3 [Example 100508, (1S,3′R,6′R,7′S,8′E,11′S,12′R)-6-chloro-7′-methoxy-11′,12′-dimethyl-7′-(1,3-oxazol-2-ylmethyl)-3,4-dihydro-2H,15′H-spiro[naphthalene-1,22′-[20]oxa[13]thia[1,14]diazatetracyclo [14.7.2.0~3,6~.0~19,24~]pentacosa[8,16,18,24]tetraen]-15′-one 13′,13′-dioxide]	8.56	5.60		
CO[C@]1(CN2CCN3CCN(S(C)(=O)=O)C[C@@H]3C2)/C=C/C[C@H](C)[C@@H](C)S(=O)(=O)NC(=O)c2ccc3c(c2)N(C[C@@H]2CC[C@H]21)C[C@@]1(CCCc2cc(Cl)ccc21)CO3 (single isomer, unassigned) [Example 237]			9.89	pIC50 ([1]; read-out: OPM-2 10% FBS IC50 IP, OPM-2 cells, 10% FBS, 16 h incubation): 7.19
C[C@@H]1CS(=O)(=O)NC(=O)c2ccc3c(c2)N(C[C@@H]2CC[C@H]2[C@](O)(C2SCCCS2)/C=C/[C@@H]1C)C[C@@]1(CCCc2cc(Cl)ccc21)CO3 [Example 100566, (1S,3′R,6′R,7′S,8′E,10′S,11′S)-6-chloro-7′-(1,3-dithian-2-yl)-7′-hydroxy-10′,11′-dimethyl-3,4-dihydro-2H,15′H-spiro[naphthalene-1,22′-[20]oxa[13]thia[1,14]diazatetracyclo [14.7.2.0~3,6~.0~19,24~]pentacosa[8,16,18,24]tetraen]-15′-one 13′,13′-dioxide]	9.85	6.23		
CO[C@@]1(CC(=O)NCCCl)/C=C/C[C@H](C)[C@@H](C)S(=O)(=O)NC(=O)c2ccc3c(c2)N(C[C@@H]2CC[C@H]21)C[C@@]1(CCCc2cc(Cl)ccc21)CO3 [Example 100509, N-(2-chloroethyl)-2-((1S,3′R,6′R,7′S,8′E,11′S,12′R)-6-chloro-7′-methoxy-11′,12′-dimethyl-13′,13′-dioxido-15′-oxo-3,4-dihydro-2H-spiro[naphthalene-1,22′-[20]oxa[13]thia[1,14]diazatetracyclo [14.7.2.0~3,6~.0~19,24~]pentacosa[8,16,18,24]tetraen]-7′-yl)acetamide]	10.24	6.44		
C[C@@H]1[C@@H](C)C/C=C/[C@](O)(C2SCCCS2)[C@@H]2CC[C@H]2CN2C[C@@]3(CCCc4cc(Cl)ccc43)COc3ccc(cc32)C(=O)NS1(=O)=O [Example 100259, (1S,3′R,6′R,7′R,8′E,11′S,12′R)-6-chloro-7′-(1,3-dithian-2-yl)-7′-hydroxy-11′,12′-dimethyl-3,4-dihydro-2H,15′H-spiro[naphthalene-1,22′-[20]oxa[13]thia[1,14]diazatetracyclo [14.7.2.0~3,6~.0~19,24~]pentacosa[8,16,18,24]tetraen]-15′-one 13′,13′-dioxide]	8.21	5.90		
CO[C@]1(CN2CCN(C)CC2)/C=C/C[C@H](C)[C@@H](C)S(=O)(=O)NC(=O)c2ccc3c(c2)N(C[C@@H]2CC[C@H]21)C[C@@]1(CCCc2cc(Cl)ccc21)CO3 [Example 62]			9.94	pIC50 [1, 6]: 6.96
CCCN1CCN(C[C@@]2(OC)/C=C/C[C@H](C)[C@@H](C)S(=O)(=O)NC(=O)c3ccc4c(c3)N(C[C@@H]3CC[C@H]32)C[C@@]2(CCCc3cc(Cl)ccc32)CO4)CC1 [Example 97, (1S,3′R,6′R,7′R,8′E,11′S,12′R)-6-chloro-7′-methoxy-11′,12′-dimethyl-7′-((4-propyl-1-piperazinyl)methyl)-3,4-dihydro-2H,15′H-spiro[naphthalene-1,22′-[20]oxa[13]thia[1,14]diazatetracyclo [14.7.2.0~3,6~.0~19,24~]pentacosa[8,16,18,24]tetraen]-15′-one 13′,13′-dioxide]			9.52	pIC50 [1, 6]: 6.64
C[C@H](C(=O)O)[C@@]1(O)/C=C/C[C@H](C)[C@@H](C)S(=O)(=O)NC(=O)c2ccc3c(c2)N(C[C@@H]2CC[C@H]21)C[C@@]1(CCCc2cc(Cl)ccc21)CO3 (single isomer, unassigned) [Example 100121]	10.25			pIC50 [1, 3]: 5.60
CO[C@]1(CC(=O)O)/C=C/C[C@H](C)[C@@H](C)S(=O)(=O)NC(=O)c2ccc3c(c2)N(C[C@@H]2CC[C@H]21)C[C@@]1(CCCc2cc(Cl)ccc21)CO3 [Example 100306, ((1S,3′R,6′R,7′R,8′E,11′S,12′R)-6-chloro-7′-methoxy-11′,12′-dimethyl-13′,13′-dioxido-15′-oxo-3,4-dihydro-2H-spiro[naphthalene-1,22′-[20]oxa[13]thia[1,14]diazatetracyclo [14.7.2.0~3,6~.0~19,24~]pentacosa[8,16,18,24]tetraen]-7′-yl)acetic acid]	9.91	6.56		
